One may read the IC50 as the concentration that gives 50% inhibition.

Sequence of hGYS1 enzyme (recombinant hGYS1/GN1 protein) (P13807 whole entry): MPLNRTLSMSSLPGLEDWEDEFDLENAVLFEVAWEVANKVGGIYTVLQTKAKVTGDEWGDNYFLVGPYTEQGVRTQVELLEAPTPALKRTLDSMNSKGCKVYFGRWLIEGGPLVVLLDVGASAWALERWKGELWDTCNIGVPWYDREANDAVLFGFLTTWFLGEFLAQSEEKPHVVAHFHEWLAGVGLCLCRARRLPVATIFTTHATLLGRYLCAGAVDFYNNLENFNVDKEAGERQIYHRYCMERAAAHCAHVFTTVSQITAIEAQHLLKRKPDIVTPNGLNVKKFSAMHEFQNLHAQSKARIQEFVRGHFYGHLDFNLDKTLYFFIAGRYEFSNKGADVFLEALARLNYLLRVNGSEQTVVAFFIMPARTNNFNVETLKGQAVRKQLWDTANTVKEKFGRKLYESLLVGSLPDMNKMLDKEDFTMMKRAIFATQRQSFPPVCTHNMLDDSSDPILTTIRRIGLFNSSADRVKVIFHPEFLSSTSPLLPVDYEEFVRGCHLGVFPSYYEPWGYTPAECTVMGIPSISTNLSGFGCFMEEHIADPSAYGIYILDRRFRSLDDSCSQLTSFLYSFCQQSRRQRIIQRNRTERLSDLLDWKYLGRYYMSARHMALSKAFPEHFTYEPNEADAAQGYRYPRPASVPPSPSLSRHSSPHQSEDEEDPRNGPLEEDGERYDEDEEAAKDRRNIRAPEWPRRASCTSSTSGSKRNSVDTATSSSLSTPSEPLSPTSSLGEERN
Sequence of hGYS1 enzyme (recombinant hGYS1/GN1 protein) (P46976 whole entry partner): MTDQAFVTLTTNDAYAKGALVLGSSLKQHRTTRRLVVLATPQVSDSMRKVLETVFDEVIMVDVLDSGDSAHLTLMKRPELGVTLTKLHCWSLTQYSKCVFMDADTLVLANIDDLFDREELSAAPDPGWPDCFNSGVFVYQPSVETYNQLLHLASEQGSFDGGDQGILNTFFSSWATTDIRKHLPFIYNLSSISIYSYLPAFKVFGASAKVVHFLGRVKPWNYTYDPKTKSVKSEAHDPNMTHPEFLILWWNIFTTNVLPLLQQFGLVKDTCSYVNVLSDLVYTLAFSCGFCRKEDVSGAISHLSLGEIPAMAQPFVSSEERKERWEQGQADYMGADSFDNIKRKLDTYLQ

The experiment concerns the target hGYS1 enzyme (recombinant hGYS1/GN1 protein) (Homo sapiens (Human), UniProt P13807). As to the kind of experiment: GYS1 coupled enzyme assay (PK/LDH). It is filed as biochemical. Particulars: hGYS1/GN1 50 nM, UDP-Glucose 0.8 mM, G6P 1 mM; geometric mean of at least 2 runs.
For `CC(C)c1ccc([C@@H](NC(=O)[C@@H]2C[C@@H](F)CN2C(=O)C(C)(C)O)c2ccccc2)cc1F` [Compound 327, (2S,4R)-4-fluoro-N-[(S)-[3-fluoro-4-(propan-2-yl)phenyl](phenyl)methyl]-1-(2-hydroxy-2-methylpropanoyl)pyrrolidine-2-carboxamide], the IC50 amounted to 121 nM.

Consider `CC(C)c1ccc([C@H](NC(=O)[C@@H]2C[C@@H](F)CN2C(=O)Cc2nnn[nH]2)c2ccccc2)cc1F` [Compound 329, (2S,4R)-4-fluoro-N-[(R)-[3-fluoro-4-(propan-2-yl)phenyl](phenyl)methyl]-1-[2-(1H-1,2,3,4-tetrazol-5-yl)acetyl]pyrrolidine-2-carboxamide], for which the IC50 was found to be 336 nM. For `CC(C)c1ccc([C@@H](NC(=O)[C@@H]2CCC3(CC3)N2C(=O)Cc2cnn[nH]2)c2ccccc2)cc1F` [Compound 341, (5S)-N-[(S)-[3-fluoro-4-(propan-2-yl)phenyl](phenyl)methyl]-4-[2-(1H-1,2,3-triazol-5-yl)acetyl]-4-azaspiro[2.4]heptane-5-carboxamide], the IC50 is 780 nM. Regarding `CC(C)c1ccc([C@@H](NC(=O)[C@@H]2C[C@@H](F)CN2C(=O)Cc2[nH]nnc2N2CCN(C(=O)OC(C)(C)C)CC2)c2ccccc2)cc1F` [Compound 370, tert-butyl 4-(5-{2-[(2S,4R)-4-fluoro-2-{[(S)-[3-fluoro-4-(propan-2-yl)phenyl](phenyl)methyl]carbamoyl}pyrrolidin-1-yl]-2-oxoethyl}-1H-1,2,3-triazol-4-yl)piperazine-1-carboxylate], the IC50 was found to be 569 nM. With `CC(=O)N1[C@@H](C)CC[C@H]1C(=O)N[C@@H](c1ccccc1)c1ccc(C2CC2)c(F)c1` [Compound 419, (2S,5S)-1-acetyl-N-[(S)-(4-cyclopropyl-3-fluorophenyl)(phenyl)methyl]-5-methylpyrrolidine-2-carboxamide], the IC50 was determined as 2190 nM.

As to `CC(=O)N1[C@H](C(=O)N[C@@H](c2ccccc2)c2ccc(C3CC3)c(F)c2)C[C@@H]2C[C@@H]21` [Compound 420, (1S,3S,5S)-2-acetyl-N-[(S)-(4-cyclopropyl-3-fluorophenyl)(phenyl)methyl]-2-azabicyclo[3.1.0] hexane-3-carboxamide], the IC50 came to 3560 nM. Consider `O=C(N[C@@H](c1ccccc1)c1ccc(C2CC2)c(F)c1)[C@@H]1C[C@@H](F)CN1C(=O)Cc1nnc(C2CC2)o1` [Compound 429, (2S,4R)-1-[2-(5-cyclopropyl-1,3,4-oxadiazol-2-yl)acetyl]-N-[(S)-(4-cyclopropyl-3-fluorophenyl)(phenyl)methyl]-4-fluoropyrrolidine-2-carboxamide], for which the IC50 was 114 nM. `O=C(N[C@@H](c1ccccc1)c1ccc(C2CC2)c(F)c1)[C@@H]1C[C@@H](F)CN1C(=O)Cc1ccon1` [Compound 438, (2S,4R)-N-[(S)-(4-cyclopropyl-3-fluorophenyl)(phenyl)methyl]-4-fluoro-1-[2-(1,2-oxazol-3-yl)acetyl]pyrrolidine-2-carboxamide]: the IC50 amounted to 303 nM. With `O=C(N[C@@H](c1ccccc1)c1ccc(C2CC2)c(F)c1)[C@@H]1[C@H]2C[C@H]2CN1C(=O)Cc1cnn[nH]1` [Compound 440, (1S,2S,5R)-N-[(S)-(4-cyclopropyl-3-fluorophenyl)(phenyl)methyl]-3-[2-(1H-1,2,3-triazol-5-yl)acetyl]-3-azabicyclo[3.1.0] hexane-2-carboxamide], the IC50 was determined as 447 nM. `NCc1nnc(CC(=O)N2C[C@H](F)C[C@H]2C(=O)N[C@@H](c2ccccc2)c2ccc(C3CC3)c(F)c2)o1` [Compound 489, (2S,4R)-1-{2-[5-(aminomethyl)-1,3,4-oxadiazol-2-yl]acetyl}-N-[(S)-(4-cyclopropyl-3-fluorophenyl)(phenyl)methyl]-4-fluoropyrrolidine-2-carboxamide]: the IC50 was 353 nM. In the case of `CC(=O)N1C[C@H](F)C[C@H]1C(=O)N[C@@H](c1ccc(C(C)C)cc1)c1ccn[nH]1` [Compound 614, (2S,4R)-1-acetyl-4-fluoro-N-[(S)-[4-(propan-2-yl)phenyl](1H-pyrazol-5-yl)methyl]pyrrolidine-2-carboxamide] it was 1150 nM.

As for `CC(C)c1ccc([C@H](NC(=O)[C@@H]2C[C@@H](F)CN2C(=O)Cc2cnn[nH]2)c2cccc(F)c2)cc1F` [Compound 647, (2S,4R)-4-fluoro-N-[(R)-[3-fluoro-4-(propan-2-yl)phenyl](3-fluorophenyl)methyl]-1-[2-(1H-1,2,3-triazol-5-yl)acetyl]pyrrolidine-2-carboxamide], the 50% inhibitory concentration (IC50) was determined as 1640 nM. On to `CC(=O)Nc1cccc([C@H](NC(=O)[C@@H]2C[C@@H](F)CN2C(=O)Cc2cn(C)nn2)c2ccc(C(C)C)cc2)c1` [Compound 649, (2S,4R)-N-[(R)-(3-acetamidophenyl) [4-(propan-2-yl)phenyl]methyl]-4-fluoro-1-[2-(1-methyl-1H-1,2,3-triazol-4-yl)acetyl]pyrrolidine-2-carboxamide], for which the IC50 worked out at 483 nM.

Take `Cc1cc(C(C)C)ccc1[C@@H](NC(=O)[C@@H]1C[C@@H](F)CN1C(=O)Cc1ncco1)c1ccccc1` [Compound 663, (2S,4R)-4-fluoro-N-[(S)-[2-methyl-4-(propan-2-yl)phenyl](phenyl)methyl]-1-[2-(1,3-oxazol-2-yl)acetyl]pyrrolidine-2-carboxamide]: the IC50 turned out to be 2020 nM. The figure for `C#CCCCCCC(=O)N1CCC[C@H]1C(=O)N[C@@H](c1ccccc1)c1ccc(C(C)C)cc1` [Compound 701, (2S)-1-(oct-7-ynoyl)-N-[(S)-phenyl[4-(propan-2-yl)phenyl]methyl]pyrrol-idine-2-carboxamide] is 446 nM.

Take `COc1ccc(C2CC2C(=O)N2C[C@H](F)C[C@H]2C(=O)N[C@@H](c2ccccc2)c2ccc(C(C)C)cc2)cc1` (stereo partly drawn) [Compound 703, (2S,4R)-4-fluoro-1-[2-(4-methoxyphenyl)cyclopro-panecarbonyl]-N-[(S)-phenyl[4-(propan-2-yl)phenyl]methyl]pyrrol-idine-2-carboxamide]: the IC50 came to 2160 nM.

In the case of `CC(C)c1ccc([C@@H](NC(=O)[C@@H]2C[C@@H](F)CN2C(=O)c2ccc3c(n2)NC(=O)CC3)c2ccccc2)cc1` [Compound 704, (2S,4R)-4-fluoro-1-(7-oxo-5,6,7,8-tetrahydro-1,8-naphthyridine-2-carbonyl)-N-[(S)-phenyl[4-(propan-2-yl)phenyl]methyl]pyrrol-idine-2-carboxamide], the IC50 was 2220 nM. In the case of `CC(C)COc1cc(C(=O)N2C[C@H](F)C[C@H]2C(=O)N[C@@H](c2ccccc2)c2ccc(C(C)C)cc2)ccn1` [Compound 705, (2S,4R)-4-fluoro-1-[2-(2-methylpropoxy)pyridine-4-carbonyl]-N-[(S)-phenyl[4-(propan-2-yl)phenyl]methyl]pyrrol-idine-2-carboxamide] it was 1720 nM. For `CC(C)c1ccc([C@@H](NC(=O)[C@@H]2C[C@@H](F)CN2C(=O)c2cc(-n3ccnc3)ccn2)c2ccccc2)cc1` [Compound 707, (2S,4R)-4-fluoro-1-[4-(1H-imidazol-1-yl)pyridine-2-carbonyl]-N-[(S)-phenyl[4-(propan-2-yl)phenyl]methyl]pyrrol-idine-2-carboxamide], the half-maximal inhibitory concentration (IC50) amounted to 1990 nM.

(Values after US11814367B2, “Inhibitors of glycogen synthase 1 (GYS1) and methods of use thereof” (Maze Therapeutics, Inc., priority 2021, dated 2023).)
